Test results published in patent US20240383843A1, “MC3-Type Lipids” (NanoVation Therapeutics Inc., priority 2021, published 2024).
≈ marks a conversion by molar mass, not a printed value.

How the values were obtained:
FVII gene = settings: mice, siRNA formulation; Jayaraman et al., 2012; cited from earlier work
[1] = test system: 22Rv1 cells modified to stably express luciferase; assay: Luciferase knockdown by siRNA-containing LNPs in 22Rv1 cells stably expressing luciferase; type: cell-based; settings: Homo sapiens, siRNA-LNP 50/10/38.5/1.5 mol %, N/P 3, read-out: half maximal effective siRNA concentration (EC50)
Procedure: The LNPs contain 50/10/38.5/1.5 mol % of ionizable lipid/DSPC/chol/PEG-DMG (N/P=3) and the siRNA encodes luciferase.
An siRNA targeted against firefly luciferase purchased from Integrated DNA Technologies (IDT, Coralville, IA) was used to assess ability of LNP to knockdown firefly luciferase in a cell line.
LNP formulations containing the ionizable lipids, nor-MC3 or MC3, DSPC, cholesterol, and PEG-DMG were prepared containing siRNA encoding luciferase as described above. The lipid nanoparticles comprise 50/10/38.5/1.5 mol % of ionizable lipid/DSPC/chol/PEG-DMG and the nitrogen-to-phosphorus ratio (N/P) was 3.

CCCCC/C=C\C/C=C\CCCCCCCCC1(CCCCCCCC/C=C\C/C=C\CCCCC)OCC(CCN(C)C)O1 (centres unmarked) [KC2]
ED50 for FVII gene silencing (FVII gene): 0.1 mg/kg

CCCCC/C=C\C/C=C\CCCCCCCC(CCCCCCC/C=C\C/C=C\CCCCC)OC(=O)CCCN(C)C [nor-MC3, (6Z,9Z,26Z,29Z)-Pentatriaconta-6,9,26,29-tetraen-18-yl 4-(dimethylamino)butanoate]
EC50 [1]: 0.164 µg/mL (≈ 0.268 µM)
